ChEMBL document CHEMBL3714725, “Diaminopyrimidines as P2X3 and P2X2/3 modulators” (2010)
The source made the active and inactive calls. No rule for the calls is given here.

Columns and labels:
[1] = target: T1, P2X purinoceptor 3 (Rattus norvegicus) (UniProt P49654); assay: Antagonist activity against rat P2X3 receptor expressed in CHOK1 cells assessed as inhibition of alpha,beta-meATP-induced calcium response incubated for 20 mins by Fluo-3AM dye based FLIPR assay; assay type: functional, cell-based; settings: CHO-K1
T1 sequence (whole entry): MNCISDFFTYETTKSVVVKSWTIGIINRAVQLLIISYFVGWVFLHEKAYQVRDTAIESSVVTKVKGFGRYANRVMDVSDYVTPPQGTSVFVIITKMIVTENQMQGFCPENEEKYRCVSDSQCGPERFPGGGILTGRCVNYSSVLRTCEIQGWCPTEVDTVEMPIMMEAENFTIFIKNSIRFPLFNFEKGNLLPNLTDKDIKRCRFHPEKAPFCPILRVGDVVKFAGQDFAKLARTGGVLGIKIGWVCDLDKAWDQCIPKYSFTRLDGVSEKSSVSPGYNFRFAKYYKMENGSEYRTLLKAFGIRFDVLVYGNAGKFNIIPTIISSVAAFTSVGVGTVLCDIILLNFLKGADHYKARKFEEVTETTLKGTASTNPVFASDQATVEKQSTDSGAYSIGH

Rattus norvegicus [2] = assay: Cmax in Crl:WI(GLx/BRL/Han)IGS BR(Hanover-Wistar) rat assessed as (5-(5-Iodo-2-isopropyl-4-methoxy-phenoxy)-pyrimidine-2,4-diamine) level at 0.127 mmol, po after 0.5 to 24 hrs by HPLC method; assay type: ADME, organism-based; parameters: dose 0.127 mmol, route oral; settings: in vivo
Rattus norvegicus [3] = assay: AUC in Crl:WI(GLx/BRL/Han)IGS BR(Hanover-Wistar) rat assessed as (5-(5-Iodo-2-isopropyl-4-methoxy-phenoxy)-pyrimidine-2,4-diamine) level at 0.127 mmol, po after 0.5 to 24 hrs by HPLC method; assay type: ADME, organism-based; parameters: time upper 24 hr, time lower 0.5 hr, dose 0.127 mmol, route oral; settings: in vivo

Row | inhibition [1] | Structure (SMILES) | other results
1 | Active | COc1cc(C(C)C)c(Oc2cnc(NC(C)=O)nc2N)cc1I | 
2 | Active | CCC(C)(C)C(=O)Nc1ncc(Oc2cc(I)c(OC)cc2C(C)C)c(N)n1 | 
3 | Active | COc1cc(C(C)C)c(Oc2cnc(NC(=O)C3CCN(C(C)=O)CC3)nc2NC(=O)C2CCN(C(C)=O)CC2)cc1I | 
4 | Active | COc1cc(C(C)C)c(Oc2cnc(N)nc2NC(=O)c2cnccn2)cc1I | 
5 | Active | C#Cc1cc(Oc2cnc(NC(=O)c3ccccc3)nc2N)c(C(C)C)cc1OC | 
6 | Active | COc1cc(C(C)C)c(Oc2cnc(NC(=O)COC(C)=O)nc2NC(=O)COC(C)=O)cc1I | 
7 | Active | COc1cc(C(C)C)c(Oc2cnc(N)nc2NC(=O)c2ccccc2)cc1I | 
8 | Active | COc1cc(C(C)C)c(Oc2cnc(NC(=O)c3cnc[nH]3)nc2N)cc1I | 
9 | Active | COc1cc(C(C)C)c(Oc2cnc(NC(C)=O)nc2NC(C)=O)cc1I | 
10 | Active | CCC(C)(C)C(=O)Nc1nc(N)ncc1Oc1cc(I)c(OC)cc1C(C)C | 
11 | Active | COc1cc(C(C)C)c(Oc2cnc(N)nc2NC(=O)c2cnc(C)cn2)cc1I | 
12 | Active | COc1cc(C(C)C)c(Oc2cnc(NC(=O)CC(C)C)nc2N)cc1I | 
13 | Active | COc1cc(C(C)C)c(Oc2cnc(NC(=O)N3CCCCC3)nc2N)cc1I | 
14 | Active | COc1cc(C(C)C)c(Oc2cnc(NC(=O)c3ccnnc3)nc2N)cc1I | 
15 | Active | COc1cc(C(C)C)c(Oc2cnc(NC(=O)CO)nc2N)cc1I | 
16 | Active | COc1cc(C(C)C)c(Oc2cnc(NC(=O)C(C)(C)C)nc2N)cc1I | 
17 | Active | C#Cc1cc(Oc2cnc(NC(=O)CCC)nc2N)c(C(C)C)cc1OC | 
18 | Active | COc1cc(C(C)C)c(Oc2cnc(N)nc2NC(=O)c2ccccn2)cc1I | 
19 | Active | COc1cc(C(C)C)c(Oc2cnc(NC(=O)N3CCC(N(C)C)CC3)nc2N)cc1I | 
20 | Active | COc1cc(C(C)C)c(Oc2cnc(NC(=O)CC(C)C)nc2NC(=O)CC(C)C)cc1I | 
21 |  | COc1cc(C(C)C)c(Oc2cnc(NC(=O)C(C)C)nc2N)cc1I | Cmax (Rattus norvegicus [2]): 61.9 ng/mL; AUC (Rattus norvegicus [3]): 200 ng·h/mL
22 | Active | COc1cc(C(C)C)c(Oc2cnc(NC(=O)c3cccnc3)nc2N)cc1I | 
23 | Active | COc1cc(C(C)C)c(Oc2cnc(NC(=O)C3CCCN3C(C)=O)nc2N)cc1I (centres undefined) | 
24 | Active | COc1cc(C(C)C)c(Oc2cnc(N)nc2NC(=O)c2ccco2)cc1I | 
25 | Active | COc1cc(C(C)C)c(Oc2cnc(NC(=O)N3CCOCC3)nc2NC(=O)N2CCOCC2)cc1I | 

Row | inhibition [1] | Structure (SMILES) | other results
26 | Active | COc1cc(C(C)C)c(Oc2cnc(NC(=O)N3CCC(O)CC3)nc2N)cc1I | 
27 | Active | COc1cc(C(C)C)c(Oc2cnc(NC(=O)c3cnccn3)nc2N)cc1I | 
28 | Active | COc1cc(C(C)C)c(Oc2cnc(NC(=O)C(C)C)nc2NC(=O)C(C)C)cc1I | 
29 | Active | CCOC(=O)Nc1ncc(Oc2cc(I)c(OC)cc2C(C)C)c(N)n1 | 
30 | Active | COc1cc(C(C)C)c(Oc2cnc(NC(=O)c3ccccn3)nc2N)cc1I | 
31 | Active | CCCC(=O)Nc1ncc(Oc2cc(I)c(OC)cc2C(C)C)c(N)n1 | 
32 | Active | COCCOCC(=O)Nc1nc(N)ncc1Oc1cc(I)c(OC)cc1C(C)C | 
33 | Active | COc1cc(C(C)C)c(Oc2cnc(NC(=O)c3ccco3)nc2N)cc1I | 
34 | Active | COc1cc(C(C)C)c(Oc2cnc(NC(=O)C(N)C(C)C)nc2N)cc1I (centres undefined) | 
35 | Active | COc1cc(C(C)C)c(Oc2cnc(N)nc2NC(=O)c2cccn2C)cc1I | 
36 | Active | COCC(=O)Nc1ncc(Oc2cc(I)c(OC)cc2C(C)C)c(N)n1 | 
37 | Active | COc1cc(C(C)C)c(Oc2cnc(N)nc2NC(=O)C2CCN(C)CC2)cc1I | 
38 | Active | COc1cc(C(C)C)c(Oc2cnc(NC(=O)Cc3cccnc3)nc2N)cc1I | 
39 | Active | COc1cc(C(C)C)c(Oc2cnc(N)nc2NC(=O)[C@@H]2CCCO2)cc1I | 
40 | Active | COc1cc(C(C)C)c(Oc2cnc(NC(=O)[C@@H]3CCCO3)nc2N)cc1I | 
41 | Active | COc1cc(C(C)C)c(Oc2cnc(NC(=O)c3ccccc3)nc2N)cc1I | 
42 | Active | COc1cc(C(C)C)c(Oc2cnc(NC(=O)N3CCC(C)CC3)nc2N)cc1I | 
43 | Active | CC[C@@H](C)[C@@H](N)C(=O)Nc1ncc(Oc2cc(I)c(OC)cc2C(C)C)c(N)n1 | 
44 | Active | C#Cc1cc(Oc2cnc(NC(C)=O)nc2N)c(C(C)C)cc1OC | 
45 | Active | COc1cc(C(C)C)c(Oc2cnc(NC(=O)C(C)(C)OC(C)=O)nc2N)cc1I | 
46 | Active | C#Cc1cc(Oc2cnc(NC(=O)C(C)(C)C)nc2NC(=O)C(C)(C)C)c(C(C)C)cc1OC | 
47 | Active | COCCOCC(=O)Nc1ncc(Oc2cc(I)c(OC)cc2C(C)C)c(N)n1 | 
48 | Active | CCCC(=O)Nc1ncc(Oc2cc(I)c(OC)cc2C(C)C)c(NC(=O)CCC)n1 | 
49 | Active | COc1cc(C(C)C)c(Oc2cnc(N)nc2NC(=O)C2CCOCC2)cc1I | 
50 | Active | COc1cc(C(C)C)c(Oc2cnc(NC(=O)N3CCN(C)CC3)nc2N)cc1I | 

Row | inhibition [1] | Structure (SMILES) | other results
51 | Active | CCC(C)C(=O)Nc1ncc(Oc2cc(I)c(OC)cc2C(C)C)c(N)n1 (centres undefined) | 
52 | Active | CCCCC(=O)Nc1ncc(Oc2cc(I)c(OC)cc2C(C)C)c(N)n1 | 
53 | Active | COc1cc(C(C)C)c(Oc2cnc(NC(=O)COC(C)=O)nc2N)cc1I | 
54 | Active | COc1cc(C(C)C)c(Oc2cnc(NC(=O)[C@@H]3CCCN3)nc2N)cc1I | 
55 | Active | C#Cc1cc(Oc2cnc(NC(=O)CC(C)(C)C)nc2N)c(C(C)C)cc1OC | 
56 | Active | COc1cc(C(C)C)c(Oc2cnc(NC(=O)[C@H](N)[C@H](C)C(C)C)nc2N)cc1I | 
57 | Active | COc1cc(C(C)C)c(Oc2cnc(NC(=O)c3ccncc3)nc2N)cc1I | 
58 | Active | COc1cc(C(C)C)c(Oc2cnc(NC(=O)C(C)(C)O)nc2N)cc1I | 
59 | Active | COc1cc(C(C)C)c(Oc2cnc(NC(=O)C3CCN(C)CC3)nc2N)cc1I | 
60 | Active | COc1cc(C(C)C)c(Oc2cnc(N)nc2NC(=O)C(C)(C)C)cc1I | 
61 | Active | COc1cc(C(C)C)c(Oc2cnc(NC(=O)c3cnc(C)cn3)nc2N)cc1I | 
62 | Active | C#Cc1cc(Oc2cnc(N)nc2NC(=O)c2cccn2C)c(C(C)C)cc1OC | 
63 | Active | CCOC(=O)Nc1ncc(Oc2cc(I)c(OC)cc2C(C)C)c(NC(=O)OCC)n1 | 
64 | Active | COc1cc(C(C)C)c(Oc2cnc(N)nc2NC(=O)C2CCN(C(C)=O)CC2)cc1I | 
65 | Active | COc1cc(C(C)C)c(Oc2cnc(NC(=O)OCC(C)C)nc2N)cc1I | 
66 | Active | COc1cc(C(C)C)c(Oc2cnc(N)nc2NC(=O)c2cnc[nH]2)cc1I | 
67 | Active | C#Cc1cc(Oc2cnc(N)nc2NC(=O)CC(C)(C)C)c(C(C)C)cc1OC | 
68 | Active | C#Cc1cc(Oc2cnc(N)nc2NC(=O)c2ccccc2)c(C(C)C)cc1OC | 
69 | Active | COc1cc(C(C)C)c(Oc2cnc(NC(=O)CCC(=O)O)nc2N)cc1I | 
70 | Active | CC[C@@H](C)[C@@H](N)C(=O)Nc1nc(N)ncc1Oc1cc(I)c(OC)cc1C(C)C | 
71 | Active | COc1cc(C(C)C)c(Oc2cnc(NC(=O)N3CCOCC3)nc2N)cc1I | 
72 | Active | C#Cc1cc(Oc2cnc(N)nc2NC(=O)CCC)c(C(C)C)cc1OC | 
73 | Active | CCCCC(=O)Nc1ncc(Oc2cc(I)c(OC)cc2C(C)C)c(NC(=O)CCCC)n1 | 
